Source: patent US4250259A, “Microbiological production of ketones from C3 -C6 secondary alcohols” (priority 1979, dated 1981)
Read-outs that look alike come from different tables or passages of the source.

How the values were obtained:
cell-free SADH system = experiment: cofactor requirement of the cell-free SADH systems; type: biochemical; settings: cell-free systems tested
Method: To prepare the cell-free secondary alcohol dehydrogenase (SADH) system, the washed cells were disrupted with a Wave Energy Ultrasonic Oscillator, Model W201 (Wave Energy System, Inc., Newtown, Pa.) and centrifuged at 20,000×g. for 30 minutes. […] The enzyme activity was measured with a fluorescence spectrophotometer (Perkin Elmer, Model MPF 44A) by following the formation of reduced NAD (EX 340 nm, Em 460 nm). The formation of reduced NAD was also followed with an absorption spectrophotometer at 340 nm. The assay system (3 ml.) contained: potassium phosphate buffer pH 7.0; 150 μmol.; NAD 1 μmol.; a given amount of enzyme preparation; and secondary alcohol 10 μmol. The reaction was started by the addition of substrate. One unit of enzyme activity represents the reduction of one μmole NAD per minute. Protein concentrations were determined by the Lowry method (J. Biol. Chem., 193: 255-275 (1951)).

[1] = tested on: purified secondary alcohol dehydrogenase; experiment: substrate specificity, electron acceptor and stoichiometry of purified yeast SADH; settings: for oxidation by the purified yeast secondary alcohol dehydrogenase: examined spectrophotometrically
[2] = tested on: purified secondary alcohol dehydrogenase (SADH); experiment: inhibition of purified SADH by metal-chelating agents, thioreagents, metals; type: biochemical, Pseudomonas sp. ATCC 21439; settings: for % inhibition of SADH activity: each inhibitor at a final concentration of 1 mM, measured spectrofluorometrically
Method: Secondary alcohol dehydrogenase (SADH) from an obligate methanol utilizer, Pseudomonas sp. ATCC 21439 was purified as follows. […] 0.05 M sodium phosphate buffer, pH 7.0 with 0.5 mM dithiothretol (buffer A) and were disrupted sonically (5×1 min.). The crude extract was separated by centrifugation. The crude extract was heat-treated at 50° C. in a water bath for 10 minutes. The resulting precipitate was removed by centrifugation. To the supernatant solution, 25 ml of protamine sulfate solution (2% solution in 0.1 M Tris base) was added dropwise with continuous stirring. After standing for 30 minutes, the extract was centrifuged. The supernatant solution was fractionated with solid ammonium sulfate. […] This DEAE-cellulose eluate was concentrated by ammonium sulfate fractionation. Material precipitating between 30 and 50% ammonium sulfate saturation was collected by centrifugation and dialyzed overnight against A. This fraction was further washed and filtered through an Amicon unit with XM 50 membrane. The concentrated fraction (6 ml) inside the Amicon unit was applied to an Affi-Gel Blue column (0.8 cm×18 cm) which had been equilibrated with buffer A for affinity chromatography. The column was washed overnight with buffer A (0.18 ml./min.) and then was eluted with buffer A containing 5 mM NAD. Each 1 ml. fraction was collected.
The purified secondary alcohol dehydrogenase enzyme (SADH) may be used directly for converting C3 -C6 secondary alcohols to the corresponding methyl ketones by the procedures described above; however, a source of NAD^+ must be added to the reaction medium. One can determine the NAD-linked secondary alcohol dehydrogenase activity with a fluorescence spectrophotometer (Perkin Elmer, Model MPF 44A) by following the formation of reduced NAD (Ex 340 nm, Em 460 nm). The assay system (3 ml.) will typically contain: sodium phosphate buffer pH 7.0, 150 μmol; NAD 1.0 μmol; a given amount of enzyme preparation; and 20 μmol secondary alcohol. The reaction is started by the addition of secondary alcohol. One unit of SADH enzyme activity represents the reduction of one nmole NAD per minute.
The effect of metal-chelating agents and thioreagents on the activity of the purified SADH enzyme were studied. […] The possibility of ethanol or n-propanol as an inhibitor was studied.

[3] = tested on: purified secondary alcohol dehydrogenase (SADH); experiment: substrate specificity and Michaelis constants of purified SADH; type: biochemical, Pseudomonas sp. ATCC 21439
[4] = tested on: Methylococcus capsulatus CRL M1 NRRL B-11,219; experiment: conversion of n-alkanes to oxidation products by cell suspensions (Table XVIII); type: cell-based; settings: methane-grown cell suspension; […] phosphate buffer, pH 7.0
Method: (§1) ^(a) Cell-suspensions of methanegrown methylotroph microorganisms
(§2) indicated in 0.15 M phosphate buffer, pH 7.0 incubated in the alkanes as
(§3) indicated at 3° C. The oxidation products were determined by g.l.c

[5] = tested on: Methylosinus trichosporium OB3b NRRL B-11,196; experiment: as above; type: cell-based; settings: methane-grown cell suspension; […] phosphate buffer, pH 7.0
Method: as §1, §2, §3

[6] = tested on: cell-free particulate fractions of methane-grown methylotrophs; experiment: inhibitors and electron donors of n-alkane conversion to sec. alcohols by cell-free particulate fractions; type: biochemical
Excerpt: The conditions for preparing the cell suspensions or the cell-free particulate fractions from methane-grown methylotroph microorganisms is the same as described above.

[7] = tested on: cell suspensions of C1-utilizers; experiment: studies on production of 2-butanone from 2-butanol by cell suspensions of the strains tested; type: cell-based; settings: cell suspensions
Excerpt: The following summarizes tests conducted on the optimal conditions for the production of methyl ketones from C3 -C6 sec. alcohols.
The substrate specificity for the oxidation of C3 -C6 secondary alcohols by the strains of C1 -utilizers was studied.

SMILES: Cc1cc2nc3c(=O)[nH]c(=O)nc-3n(C[C@H](O)[C@H](O)[C@H](O)COP(=O)(O)OP(=O)(O)OC[C@H]3O[C@@H](n4cnc5c(N)ncnc54)[C@H](O)[C@@H]3O)c2cc1C [FAD, flavin adenine dinucleotide, reference compound]
- effectiveness as cofactor for oxidation of 2-butanol / C3-C6 secondary alcohols (cell-free SADH system): not effective
- ability to act as electron acceptor/carrier for the purified enzyme [1]: could not act as electron carrier

SMILES: CCCCCO [pentan-1-ol]
- oxidation by the purified yeast secondary alcohol dehydrogenase [1]: not oxidized

SMILES: CCO [ethanol]
- inhibition of SADH activity [2]: did not inhibit
- oxidation by the purified yeast secondary alcohol dehydrogenase [1]: not oxidized

SMILES: O=C1C(Cl)=CC(=Nc2ccc(O)cc2)C=C1Cl [dichlorophenol indophenol, 2,6-dichlorophenol indophenol, reference compound]
- effectiveness as cofactor for oxidation of 2-butanol / C3-C6 secondary alcohols (cell-free SADH system): not effective
- ability to act as electron acceptor/carrier for the purified enzyme [1]: could not act as electron carrier

SMILES: CC=O [acetaldehyde]
- oxidation by purified SADH [3]: lower rate

SMILES: [Fe+3] [ferric]
- % inhibition of SADH activity [2]: 35%

SMILES: NC(=O)C1=CN([C@@H]2O[C@H](COP(=O)(O)OP(=O)(O)OC[C@H]3O[C@@H](n4cnc5c(N)ncnc54)[C@H](OP(=O)(O)O)[C@@H]3O)[C@@H](O)[C@H]2O)C=CC1 [NAD(P)H]
- effectiveness as cofactor for oxidation of 2-butanol / C3-C6 secondary alcohols (cell-free SADH system): not effective

SMILES: C [Methane]
- Conversion Rate, product Methanol [4]: 2.5 μmoles/hr./mg./protein
- Conversion Rate, product Methanol [5]: 1.5 μmoles/hr./mg./protein

SMILES: CC(C)CO [isobutanol]
- oxidation by purified SADH [3]: not oxidized

SMILES: NC(=O)C1=CN([C@@H]2O[C@H](COP(=O)(O)OP(=O)(O)OC[C@H]3O[C@@H](n4cnc5c(N)ncnc54)[C@H](OP(=O)(O)O)[C@@H]3O)[C@@H](O)[C@H]2O)C=CC1 [NADPH, reduced nicotinamide adenine dinucleotide phosphate]
- use as electron donor for hydroxylation of n-alkanes [6]: could also be utilized as an electron donor

SMILES: [Cu+2] [cupric]
- % inhibition of SADH activity [2]: 25%

SMILES: O=Cc1ccccc1 [benzaldehyde]
- oxidation by purified SADH [3]: not oxidized

SMILES: CCC(O)CO (stereo not drawn) [butane 1,2-diol]
- oxidation by purified SADH [3]: not oxidized
- oxidation by the purified yeast secondary alcohol dehydrogenase [1]: not oxidized

SMILES: [N-]=[N+]=[N-] [Sodium azide]
- % inhibition of SADH activity [2]: 10%

SMILES: CCCCCCC(C)O (stereo not drawn) [2-octanol]
- oxidation by the purified yeast secondary alcohol dehydrogenase [1]: not oxidized

SMILES: NNC(N)=S [thiosemicarbazide]
- inhibition of conversion of n-alkanes to sec. alcohols (words) [6]: inhibited

SMILES: CC(O)CCO (stereo not drawn) [butane 1,3-diol]
- oxidation by purified SADH [3]: lower rate
- oxidation by the purified yeast secondary alcohol dehydrogenase [1]: not oxidized

SMILES: O=C(O)c1cc(SSc2ccc([N+](=O)[O-])c(C(=O)O)c2)ccc1[N+](=O)[O-] [5,5'-dithiobis(2-nitrobenzoic acid)]
- inhibition of SADH activity [2]: inhibited
- % inhibition of SADH activity [2]: 100%

SMILES: CCCCCC(C)O (stereo not drawn) [2-heptanol]
- oxidation by the purified yeast secondary alcohol dehydrogenase [1]: not oxidized
- rate of oxidation of secondary alcohols by strains of C1-utilizers [7]: much slower rate

SMILES: C=CC [propylene]
- inhibition of conversion of n-alkanes to sec. alcohols (words) [6]: inhibited
- inhibition of conversion of n-alkanes to sec. alcohols (words) ([6]; listed as Propylene): inhibit

SMILES: [Zn+2] [Zn^++]
- stimulation of SADH activity ([2]; addition of exogenous zinc): did not stimulate
- % inhibition of SADH activity [2]: 0%

SMILES: OC1CCCCC1 [cyclohexanol]
- oxidation by purified SADH [3]: lower rate

SMILES: [Ni+2] [nickel]
- % inhibition of SADH activity [2]: 20%
